Source: the supplement of paper PMC10331698
± gives the standard deviation of the averaged measurements.

Key:
Experiment in all cases: level (log10 ratio to DMSO vehicle control); higher = higher biomarker level / cell amount than vehicle control
Methotrexate = compound: CN(Cc1cnc2nc(N)nc(N)c2n1)c1ccc(C(=O)N[C@@H](CCC(=O)O)C(=O)O)cc1 [Methotrexate]; details: in DMSO
Experimental: (§1)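 BioMAP Diversity Plus panel of 12 human primary cell co-culture systems (3C, 4H, LPS, SAg, BT, BF4T, BE3C, CASM3C, HDF3CGF, KF3CT, MyoF, Mphg). Compounds were added 1 h before stimulation and left for 24 h (MyoF 48 h; BT 72 h for soluble read-outs or 6 d for IgG). Biomarkers were read by ELISA, cytotoxicity by SRB, PBMC viability and proliferation by Alamar Blue. Each well value was divided by the mean of 8 DMSO control wells on the same plate and log10 transformed; duplicate blinded samples were tested at 4 concentrations.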

Perfluorooctanoic acid = compound: O=C(O)C(F)(F)C(F)(F)C(F)(F)C(F)(F)C(F)(F)C(F)(F)C(F)(F)F [Perfluorooctanoic acid]; details: in DMSO
Experimental: as §1

[1] = compound: O=P(O)(O)CCC(F)(F)C(F)(F)C(F)(F)C(F)(F)C(F)(F)C(F)(F)F [2-(Perfluorohexyl)ethylphosphonic acid]; details: in DMSO
Experimental: as §1

[2] = compound: O=S(=O)(OCC(F)(F)F)C(F)(F)C(F)(F)C(F)(F)C(F)(F)F [2,2,2-Trifluoroethyl perfluorobutanesulfonate]; details: in DMSO
Experimental: as §1

[3] = compound: OCC(F)(F)C(F)(F)C(F)(F)C(F)(F)C(F)(F)C(F)(F)C(F)(F)C(F)(F)C(F)(F)C(F)(F)C(F)(F)F [11:1 Fluorotelomer alcohol]; details: in DMSO
Experimental: as §1

[4] = compound: OCCCC(F)(F)C(F)(F)C(F)(F)C(F)(F)C(F)(F)C(F)(F)C(F)(F)C(F)(F)F [3-(Perfluorooctyl)propanol]; details: 6700 nM; in DMSO
Experimental: as §1

[5] = compound: OCCCCC(F)(F)C(F)(F)C(F)(F)C(F)(F)F [4:4 Fluorotelomer alcohol]; details: in DMSO
Experimental: as §1

Row | Test System | level (log10) (Methotrexate; 1500 nM) | level (log10) (Methotrexate; 4400 nM) | level (log10) (Methotrexate; 13000 nM) | level (log10) (Methotrexate; 40000 nM) | level (log10) (Perfluorooctanoic acid; 6700 nM) | level (log10) (Perfluorooctanoic acid; 20000 nM) | level (log10) (Perfluorooctanoic acid; 60000 nM) | level (log10) ([1]; 6700 nM) | level (log10) ([1]; 20000 nM) | level (log10) ([1]; 60000 nM) | level (log10) ([2]; 6700 nM) | level (log10) ([2]; 20000 nM) | level (log10) ([2]; 60000 nM) | level (log10) ([3]; 1100 nM) | level (log10) ([3]; 3300 nM) | level (log10) ([3]; 10000 nM) | level (log10) [4] | level (log10) ([5]; 6700 nM) | level (log10) ([5]; 20000 nM) | level (log10) ([5]; 60000 nM)
1 | 3C:CXCL9/MIG | 0.0075 ± 0.0092 | 0.001 ± 0.016 | -0.0015 ± 0.005 | 0.0145 ± 0.0064 | 0.001 ± 0.021 | 0.0095 ± 0.023 | 0.0265 ± 0.022 | -0.004 ± 0.0071 | -0.003 ± 0.0014 | 0.01 ± 0.025 | 0.0075 ± 0.043 | 0.0045 ± 0.026 | 0.0025 ± 0.022 | -0.001 ± 0.014 | 0.0045 ± 0.0064 | 0.0145 ± 0.016 | -0.0075 ± 0.0092 | 0.0075 ± 0.0035 | -0.01 ± 0.0014 | 0.007 ± 0.0028
2 | BE3C:CXCL9/MIG | 0.006 ± 0.0071 | 0.013 ± 0.0028 | 0.013 ± 0.014 | 0.01 ± 0.0057 | -0.0025 ± 0.0035 | -0.0045 ± 0.005 | 0.002 ± 0.018 | -0.008 ± 0.0057 | -0.0075 ± 0.0021 | 0.003 ± 0.02 | 0.031 ± 0.0085 | 0.0065 ± 0.0078 | 0.0135 ± 0.0021 | -0.0195 ± 0.00071 | -0.03 ± 0.0028 | -0.0385 ± 0.022 | -0.0045 ± 0.018 | 0.01 ± 0.0042 | -0.0025 ± 0.005 | 0.0095 ± 0.0092
3 | BF4T:SRB | -0.003 ± 0.017 | -0.0105 ± 0.0078 | -0.007 ± 0.0071 | 0.0045 ± 0.023 | -0.008 ± 0.0099 | 0.0015 ± 0.0064 | -0.0005 ± 0.013 | -0.007 ± 0.0042 | -0.011 ± 0.0014 | -0.0055 ± 0.016 | 0.005 ± 0.0042 | 0.002 ± 0.0028 | 0.0055 ± 0.0021 | -0.003 ± 0.0014 | -0.0075 ± 0.0064 | 0.001 ± 0.014 | -0.0075 ± 0.0021 | -0.0105 ± 0.0092 | -0.0085 ± 0.0064 | -0.002 ± 0.011
4 | 3C:HLA-DR | -0.014 ± 0.031 | -0.012 ± 0.038 | -0.013 ± 0.025 | -0.011 ± 0.03 | 0.0035 ± 0.0092 | -0.008 ± 0.028 | 0.0155 ± 0.043 | -0.0055 ± 0.012 | -0.0135 ± 0.00071 | -0.0085 ± 0.044 | -0.01 ± 0.011 | -0.0135 ± 0.0092 | -0.032 ± 0.0014 | -0.019 ± 0.0042 | -0.034 ± 0.011 | -0.04 ± 0.016 | -0.03 ± 0.0028 | -0.002 ± 0.042 | -0.0065 ± 0.026 | 0.006 ± 0.033
5 | LPS:CD141/Thrombomodulin | 0.016 ± 0.03 | -0.0155 ± 0.036 | 0.0085 ± 0.015 | -0.0025 ± 0.023 | 0.068 ± 0.076 | 0.0185 ± 0.077 | 0 ± 0.03 | -0.004 ± 0.11 | -0.0055 ± 0.11 | 0.0315 ± 0.032 | -0.0075 ± 0.03 | 0.0145 ± 0.04 | 0.067 ± 0.025 | -0.0285 ± 0.015 | -0.0185 ± 0.012 | -0.0035 ± 0.013 | 0.092 ± 0.031 | 0.0135 ± 0.032 | 0.0215 ± 0.0078 | 0.007 ± 0.0085
6 | BT:Secreted IgG | -1.302 ± 0.011 | -1.31 ± 0.079 | -1.33 | -1.26 | 0.0095 ± 0.026 | -0.005 ± 0.013 | -0.0165 ± 0.0078 | 0.0125 ± 0.0021 | 0.002 ± 0.0099 | -0.046 ± 0.047 | -0.0615 ± 0.043 | -0.0585 ± 0.016 | -0.162 ± 0.058 | 0.007 ± 0.025 | 0.0025 ± 0.033 | -0.014 ± 0.054 | 0.009 ± 0.016 | 0.01 ± 0.024 | 0.0045 ± 0.021 | -0.0055 ± 0.037
7 | LPS:CXCL8/IL-8 | -0.015 ± 0.0085 | -0.001 ± 0.013 | 0.0045 ± 0.0021 | 0.0055 ± 0.013 | 0.0155 ± 0.021 | 0.033 ± 0.014 | 0.146 ± 0.057 | -0.023 ± 0.024 | -0.0235 ± 0.0021 | 0.0375 ± 0.054 | -0.004 ± 0.034 | -0.002 ± 0.0099 | -0.0205 ± 0.026 | -0.007 ± 0.011 | -0.013 ± 0.0014 | -0.0305 ± 0.039 | -0.132 ± 0.014 | 0.0295 ± 0.005 | 0.0205 ± 0.033 | 0.027 ± 0.041
8 | SAg:SRB | -0.002 ± 0.0042 | -0.007 ± 0.0014 | 0.003 ± 0.0071 | -0.0015 ± 0.0021 | -0.018 ± 0.013 | 0.0045 ± 0.012 | -0.053 ± 0.017 | -0.008 ± 0.011 | 0.0025 ± 0.013 | -0.0355 ± 0.035 | 0.0025 ± 0.013 | -0.0045 ± 0.0021 | -0.005 | -0.0415 ± 0.0092 | -0.066 ± 0.0028 | -0.065 ± 0.013 | -0.009 ± 0.0071 | 0.0005 ± 0.0021 | 0.0085 ± 0.015 | -0.0055 ± 0.0035
9 | BE3C:CXCL10/IP-10 | 0.003 ± 0.051 | 0.0105 ± 0.032 | 0.0195 ± 0.019 | 0.011 ± 0.038 | -0.021 ± 0.017 | -0.0275 ± 0.013 | -0.118 ± 0.022 | -0.056 ± 0.058 | -0.057 ± 0.067 | -0.0455 ± 0.09 | 0.021 ± 0.0057 | 0.003 ± 0.0028 | 0.011 ± 0.011 | -0.0345 ± 0.035 | -0.0745 ± 0.03 | -0.043 ± 0.0071 | -0.009 ± 0.0099 | -0.0035 ± 0.0021 | 0 | 0.014 ± 0.017
10 | BF4T:IL-1alpha | 0.0145 ± 0.00071 | -0.037 ± 0.0042 | -0.012 ± 0.031 | 0.0045 ± 0.0021 | -0.009 ± 0.0057 | -0.0125 ± 0.018 | -0.0055 ± 0.018 | 0.0005 ± 0.015 | -0.014 ± 0.013 | 0.002 ± 0.042 | 0.0195 ± 0.023 | 0.0085 ± 0.026 | 0.0075 ± 0.015 | -0.016 ± 0.0014 | -0.0125 ± 0.013 | 0.0025 ± 0.0021 | -0.012 ± 0.0014 | 0.0075 ± 0.013 | -0.0105 ± 0.0035 | -0.001 ± 0.017
11 | 4H:SRB | 0.0105 ± 0.0078 | -0.0075 ± 0.011 | 0.0035 ± 0.00071 | 0.007 ± 0.0014 | -0.013 ± 0.0071 | -0.004 ± 0.023 | -0.038 ± 0.031 | -0.005 ± 0.024 | -0.0065 ± 0.021 | -0.0005 ± 0.032 | -0.0025 ± 0.00071 | -0.0085 ± 0.011 | -0.0015 ± 0.023 | -0.0105 ± 0.0092 | -0.0195 ± 0.0035 | -0.0005 ± 0.025 | -0.0015 ± 0.00071 | -0.003 ± 0.013 | 0 ± 0.018 | -0.001 ± 0.023
12 | BF4T:PAI-I | -0.002 ± 0.014 | -0.0075 ± 0.0078 | -0.0065 ± 0.0078 | -0.002 ± 0.0071 | 0.0005 ± 0.0021 | 0.0015 ± 0.0021 | -0.007 ± 0.0099 | -0.0075 ± 0.0092 | -0.0115 ± 0.0035 | -0.016 ± 0.038 | -0.0035 ± 0.0035 | -0.0075 ± 0.00071 | -0.0025 ± 0.0021 | -0.003 ± 0.011 | -0.003 ± 0.0042 | 0.002 ± 0.027 | -0.016 ± 0.024 | 0.0065 ± 0.0078 | 0.011 ± 0.0099 | 0.0125 ± 0.012
13 | LPS:CD142/Tissue Factor | -0.0105 ± 0.018 | -0.0155 ± 0.039 | 0.022 ± 0.076 | -0.0035 ± 0.0021 | 0.0445 ± 0.056 | 0.008 ± 0.089 | 0.042 ± 0.017 | 0.0045 ± 0.1 | 0.054 ± 0.047 | 0.119 ± 0.052 | 0.0325 ± 0.12 | -0.069 ± 0.13 | -0.153 ± 0.13 | 0.056 ± 0.0028 | 0.084 ± 0.03 | 0.0995 ± 0.00071 | -0.126 ± 0.066 | 0.003 ± 0.027 | 0.031 ± 0.027 | -0.0095 ± 0.023
14 | 3C:SRB | 0.0055 ± 0.0035 | 0 ± 0.017 | 0.011 ± 0.028 | -0.0155 ± 0.0021 | -0.017 ± 0.0042 | 0.0045 ± 0.019 | -0.102 ± 0.044 | 0.0015 ± 0.032 | 0.0085 ± 0.015 | -0.006 ± 0.028 | -0.0135 ± 0.0021 | -0.014 ± 0.0028 | -0.0295 ± 0.012 | -0.043 ± 0.0014 | -0.115 ± 0.021 | -0.116 ± 0.014 | -0.0195 ± 0.018 | -0.0075 ± 0.025 | 0.004 ± 0.025 | 0.0095 ± 0.032
